{"source": "patent US6780838B2", "about": "“Compounds for treating fungal pathologies of the oral cavity” (priority 2001, dated 2004)", "key": {"[1]": {"details": "amino acids added to C-terminal α-MSH (11-13); cited from earlier work"}, "C. albicans [2]": {"test_system": "C. albicans", "test": "C. albicans colony forming units (viability) after incubation with peptide", "assay_type": "cell-based", "details": "for relative potency in reducing C. albicans viability: 10^−4 M melanocortin peptides (FIG. 2 legend: all 10^−6 M); for reducing C. albicans CFU at higher concentrations: up to 10^−4 M, results not shown in the figures", "protocol": "C. albicans (clinical isolate) was obtained from the collection of the Department of Microbiology, Ospedale Maggiore di Milano and maintained on Sabouraud's agar slants and periodically transferred to Sabouraud's agar plates and incubated for 48 hours at 28° C. To prepare a stationary growth phase yeast, a colony was taken from the agar plate and transferred into 30 ml Sabouraud-dextrose broth and incubated for 72 hours at 32° C. Cells were centrifuged and suspended in Hank's balanced salt solution (“HBSS”) to the desired concentration. Viability, determined by the exclusion of 0.01% methylene blue, remained >98%.\nC. albicans (1×10^6/ml in HBSS) was incubated in the presence of absence or (1-13) (SEQ ID NO: […]) or (11-13) (SEQ ID NO: 1) at concentrations in the range of 10^−15 M to 10^−6 M for 2 hours at 37° C. Cells were then washed in cold distilled water and diluted with HBSS to a concentration of 100 organisms/ml. One-ml aliquots were dispensed on blood agar plates and incubated for 48 hours at 37° C. Organism viability was estimated from the number of colonies formed.\nIn subsequent experiments using familiar procedures we compared activity of α-MSH (4-10) (SEQ ID NO: 2), (6-13) (SEQ ID NO: 3), (11-13) (SEQ ID NO: 1), ACTH (SEQ ID NO: 5) (1-39), (18-39) (SEQ ID NO: 6) and fluconazole, the latter an established antifungal agent. Melanocortin peptides and fluconazole were tested in concentrations of 10^−6 M to 10^−4 M. There were at least six replicates for each concentration of peptide. […]"}, "[3]": {"details": "stereochemistry analogs, Hiltz et al. 1991; cited from earlier work"}, "[4]": {"test_system": "cAMP content of C. albicans", "test": "cAMP content of permeabilized C. albicans (EIA)", "assay_type": "cell-based", "details": "FIG. 5; 10^−6 M, 3 minutes; increase of same order of magnitude as equimolar forskolin", "protocol": "C. albicans ([…]), permeabilized with toluene/ethanol, were incubated at 37° C. with continuous shaking in the presence of 10^31 6 M α-MSH(1-13) (SEQ ID NO: 4), (11-13) (SEQ ID NO: 1), forskolin, an agent known to increase intracellular cAMP, or in medium alone. The reaction was stopped after 3 minutes by the addition of ice cold ethanol, cAMP was measured in duplicate using a commercial enzyme immunoassay (EIA) kit (Amersham, United Kingdom) after extraction via the liquid-phase method according to manufacturer's instructions. The effect of forskolin (10^−6 M) on C. albicans colony formation was determined using the same procedure as for α-MSH peptides."}, "C. albicans [5]": {"test_system": "C. albicans", "test": "C. albicans killing by human neutrophils", "assay_type": "cell-based", "details": "FIG. 4; 10^−12 M to 10^−4 M; 2 hours at 37° C.; p<0.01", "protocol": "Venous blood (20 ml) from health volunteers was anticoagulated with heparin. Neutrophils were isolated using dextran sedimentation and Ficoll-Hypaque (Sigma Chemical Co., St. Louis, […]., USA) centrifugation. Erythrocytes were lysed via hypotonic shock. Neutrophils represented at least 97% of the cell suspension. Cell viability, estimated by trypan blue exclusion, was >98%. Neutrophils were suspended to a final concentration in HBSS. C. albicans (1×^6) were opsonized with human AB serum in a shaking water bath for 30 minutes at 37° C. Organisms were then incubated with neutrophils in medium or in medium with α-MSH (1-13) (SEQ ID NO: 4) or α-MSH(11-13) (SEQ ID NO: 1) in concentrations of 10^31 15 M to 10^31 4 M in a shaking water bath for 2 hours at 37° C. After incubation, the culture tubes were placed on ice stop growth and extracellular organisms were washed twice with centrifugation at 1000×g at 4° C. A 2.5% sodium desoxycholoate solution was added to obtain a suspension of […]. Two 1/100 serial dilutions in HBSS were made to obtain a final suspension of 100 cells/ml. Aliquots of 1 ml were dispensed on blood agar plates and incubated for 48 hours at 37° C. Colony forming units (CFUs) were counted at the end of the incubation period. Experiments were run in triplicate and repeated using blood from 5 different donors."}, "C. albicans [6]": {"test_system": "C. albicans", "test": "C. albicans colony forming units (viability) after incubation with peptide", "assay_type": "cell-based", "details": "FIG. 1; peptide 10^−12 M to 10^−4 M; 2 hours at 37° C.; p<0.01 vs. control"}, "[7]": {"details": "versus α-MSH; cited from earlier work"}}, "note": "Where no end group is shown, it is not given here.", "data": [{"substance": "8-13 sequence: α-MSH 8-13 sequence (RWGKPV; ends and bridges not checked; UniProt P01189 145-150, looked up, fragment)", "values": [{"measurement": "antipyretic potency relative to the 11-13 sequence", "setting": "[1]", "result": "greater than that of the 11-13 sequence"}]}, {"substance": "9-13 sequence: α-MSH 9-13 sequence (WGKPV; ends and bridges not checked; UniProt P01189 146-150, looked up, fragment)", "values": [{"measurement": "antipyretic potency relative to the 11-13 sequence", "setting": "[1]", "result": "almost devoid of activity"}]}, {"substance": "10-13 sequence: α-MSH 10-13, glycine added to the 11-13 sequence (GKPV; ends and bridges not checked; UniProt P01189 147-150, looked up, fragment)", "values": [{"measurement": "antipyretic potency relative to the 11-13 sequence", "setting": "[1]", "result": "slightly decreased the potency"}]}, {"substance": "ACTH (1-39): adrenocortitrophic hormone (1-39) (SYSMEHFRWGKPVGKKRRPVLVYPAGEDDEASEAFPLEF)", "values": [{"measurement": "relative potency in reducing C. albicans viability", "setting": "C. albicans [2]; FIG. 2", "result": "did not reduce C. albicans viability"}, {"measurement": "reducing C. albicans CFU at higher concentrations", "setting": "C. albicans [2]", "result": "ineffective"}]}, {"substance": "ACTH fragment (18-39): ACTH fragment (18-39) (CLIP) (RPVLVYPAGEDDEASEAFPLEF)", "values": [{"measurement": "relative potency in reducing C. albicans viability", "setting": "C. albicans [2]; FIG. 2", "result": "did not reduce C. albicans viability"}, {"measurement": "reducing C. albicans CFU at higher concentrations", "setting": "C. albicans [2]", "result": "ineffective"}]}, {"substance": "Ac-[D-K^11]-α-MSH 11-13-NH2", "values": [{"measurement": "anti-inflammatory potency/activity relative to the L-form tripeptide α-MSH 11-13", "setting": "[3]", "result": "same general potency"}]}, {"substance": "HFRWGKPV (Ac-HFRWGKPV-NH2) [α-MSH (6-13)]", "values": [{"measurement": "relative potency in reducing C. albicans viability", "setting": "C. albicans [2]; FIG. 2", "result": "most effective"}]}, {"substance": "KPV (Ac-Lys-Pro-Val-NH2) [α-MSH (11-13)]", "values": [{"measurement": "cAMP content in the yeast", "setting": "[4]", "result": "enhanced"}, {"measurement": "relative potency in reducing C. albicans viability", "setting": "C. albicans [2]; FIG. 2", "result": "most effective"}, {"measurement": "killing of C. albicans by human neutrophils", "setting": "C. albicans [5]", "result": "enhanced the killing"}, {"measurement": "C. albicans colony forming units (CFU)", "setting": "C. albicans [6]", "result": "greatly reduced"}]}, {"substance": "SYSMEHFRWGKPV [α-MSH (1-13)]", "values": [{"measurement": "cAMP content in the yeast", "setting": "[4]", "result": "enhanced"}, {"measurement": "relative potency in reducing C. albicans viability", "setting": "C. albicans [2]; FIG. 2", "result": "most effective"}, {"measurement": "killing of C. albicans by human neutrophils", "setting": "C. albicans [5]", "result": "enhanced the killing"}, {"measurement": "C. albicans colony forming units (CFU)", "setting": "C. albicans [6]", "result": "greatly reduced"}]}, {"substance": "VPK-Ac-CC-Ac-KPV (Ac-CKPV; also: disulfide-linked dimer through Cys)", "values": [{"measurement": "effectiveness against microbes compared with α-MSH (11-13)", "setting": "C. albicans [2]", "result": "at least as effective"}, {"measurement": "C. albicans colony forming units (CFU)", "setting": "C. albicans [6]", "result": "inhibited C. albicans colony formation"}]}, {"substance": "[Nle^4,D-Phe^7]-α-MSH", "values": [{"measurement": "potency in reducing fever relative to the parent peptide", "setting": "[7]", "result": "approximately 10 times"}]}, {"substance": "α-MSH (4-10): core α-MSH sequence (4-10), SEQ ID NO: 2", "values": [{"measurement": "inhibition of CFU", "setting": "C. albicans [2]; FIG. 2, 10^−4 M (FIG. 2 legend: 10^−6 M), p<0.01 vs. control", "result": "approximately 50%"}]}]}
